2 compounds from US4207326A, “Antimicrobial quaternary pyrazole derivatives” (Cilag-Chemie A.G., priority 1979, dated 1980) can be followed below.

Read-outs that look alike come from different tables or passages of the source.

For experiment [1], the system named is S. pyogenes. Nature of the experiment: Antibacterial activity: Minimum Inhibitory Concentration. Format: cell-based, Streptococcus pyogenes NCTC 8198. The note with it: Streptococcus pyogenes, 24 hours. On the procedure:
(§1) The antimicrobial activity was determined by inoculation of the test microorganism into suitable growth media containing solutions of the compounds at concentrations of 100, 50, 10, 5, 1.0, 0.5 and 0.1 μg/ml. The reference antibiotics used were Gentamicin for the antibacterial tests and Amphotericin B for the antimycotic and antifungal tests. After incubation the antimicrobial activity was recorded as the Minimal Inhibitory Concentration (M.I.C.), i.e., the lowest concentration preventing macroscopically visible growth, for each test compound against each organism.
(§2) An initial solution of each formula (I) compound to be tested in sterile distilled water was prepared at a concentration of 1000 μg/ml. With appropriate dilutions using sterile distilled water, additional solutions were prepared at concentrations of 500, 100, 50, 10, 5 and 1 μg/ml.
(§3) They were cultured and maintained on Tryptone Soy Agar (Oxoid CM 131), with the addition of 10% horse blood for the S. pyogenes.
(§4) To prepare the organisms as inocula for the test, slopes of this medium were streaked with the organisms and incubated at 37° C. for 24 hours. 4.5 Ml volumes of Brian-Heart Infusion Broth (Oxoid CM 225) were then inoculated with a platinum loop from the agar slope cultures and incubated for 24 hours at 37° C. The final inocula were then prepared by adding 0.1 ml aliquots of the Brain-Heart Infusion Broth cultures to 100 ml volumes of sterile physiological saline.
(§5) (a) For the test on each of the bacterial strains and each of the test and reference compounds, a series of 8 tubes containing 4.5 ml volumes of Brain-Heart Infusion Broth (Oxoid CM 225) were prepared. To 7 of these were added 0.5 ml volumes of the final solutions of the test compouns, giving final concentrations in the broths of 100, 50, 10, 5, 1.0, 0.5 and 0.1 μg/ml. To the eighth tube in each series was added 0.5 ml of the solvent used and diluted as for the preparation of the 1000 μg/ml solution of the compound. This tube was used as the growth control. The tubes were inoculated with 0.02 ml aliquots of the inocula prepared in accordance with "(a) Bacteria" above, and incubated at 37° C. for 24 hours. The tubes were then examined for evidence of bacterial growth as shown by turbidity of the medium and the lowest concentration of the test compound which prevented bacterial growth was recorded as the Minimal Inhibitory Concentration. This test procedure was carried out on two separate days.

For experiment [2], the system named is C. neoformans. Nature of the experiment: Antimycotic activity: Minimum Inhibitory Concentration. Format: cell-based, Cryptococcus neoformans NCPF 3184. The note with it: Cryptococcus neoformans, pH 5.5, C. neoformans, pH 5.5, 30° C., 72 hours, read-out: Minimum Inhibitory Concentrations. On the procedure: as §1, §2
The C. neoformans was also maintained on Sabouraud-Dextrose Agar (Oxoid CM 41), but in this case cultures for the preparation of the inoculum were incubated on this agar at 30° C. for 48 hours. A 4.5 ml volume of citric acid-phosphate buffer pH 5.5 plus Yeast-Nitrogen Base (Difco-0392-15) was then inoculated from the agar culture and incubated at 30° C. for 48 hours. A 0.1 ml aliquot of this culture was then added to 100 ml sterile physiological saline to give the final inoculum.
(b) For the tests on each of the C. albicans, C. tropicalis and C. neoformans strains and each of the test and reference compounds, a series of 8 tubes containing 4.5 ml volumes of citric acid-phosphate buffer pH 5.5 plus Yeast-Nitrogen Base (Difco 0392-15) were prepared. To 7 of these were added 0.5 ml volumes of the final solutions of the test compounds, giving final concentrations in the broths of 100, 50, 10, 5, 1.0, 0.5 and 0.1 μg/ml. To the eighth tube in each series was added 0.5 ml of the solvent used and diluted as for the preparation of the 1000 μg/ml solution of the compound. This tube was used as the growth control. The tubes were then inoculated with 0.1 ml aliquots of the inocula prepared as in "(b) Fungi" above. The tubes inoculated with the C. albicans and C. tropicalis were inoculated at 37° C. for 72 hours and the tubes inoculated with the C. neoformans straim were incubated at 30° C. for 72 hours. […] The tubes were then examined for evidence of growth as shown by turbidity of the medium and the lowest concentration of the test compound which prevented fungal growth was recorded as the Minimal Inhibitory Concentration. This test procedure was carried out on two separate days.

Experiment [3] has as its system T. mentagrophytes. Nature of the experiment: Antifungal activity: Minimum Inhibitory Concentration. Format: cell-based, Trichophyton mentagrophytes NCPF 410. The conditions noted are these: Trichophyton mentagrophytes, T. mentagrophytes, 27° C., one week, read-out: Minimum Inhibitory Concentration. How it is done:
as §1, §2
T. mentagrophytes NCPF 410
The A. corymbifera, A. fumigatus, S. schenkii, T. rubrum, T. mentagrophytes, M. canis and P. verrucosa strains were all maintained on Sabouraud-Dextrose Agar (Oxoid CM 41) by incubating for 14 days at 27° C. To prepare the inocula 30 ml volumes of Sabouraud-Liquid medium (Oxoid CM 147) were inoculated from the agar cultures and incubated at 27° C. until heavy uniform growth resulted. The mycelial growth was then broken up by shaking with glass beads.
1 Ml aliquots were removed from each of the cultures for the purpose of making viable counts and the cultures were then held at 4° C. The viable counts were made by preparing serial ten-fold dilutions of the cultures in sterile physiological saline and spreading on plates of Sabouraud-Dextrose Agar (Oxoid CM 41) which were then incubated at 27° C. for 14 days. When the viable counts had confirmed that each of the inocula contained approximately 10^6 colony forming units (C.F.U.) per ml the cultures were withdrawn from the refrigerator and used as the inocula for the tests.
(c) For the tests on each of the remaining seven strains and each of the test and reference compounds, a series of 8 tubes containing 4.5 ml volumes of Sabouraud-Liquid Medium (Oxoid CM 147) were prepared. To 7 of these were added 0.5 ml volumes of the final solutions of the test compounds, giving final concentrations in the broths of 100, 50, 10, 5, 1.0, 0.5 and 0.1 μg/ml. To the eighth tube in each series was added 0.5 ml of the solvent used and diluted as for the preparation of the 500 μg/ml solution of the compound. This tube was used as a growth control. The tubes were then inoculated with 0.1 ml aliquots of the inocula prepared as in "(b) Fungi" above. The tubes were then incubated at 27° C. with continuous shaking for a period of one week. The tubes were then examined for evidence of growth as shown by the presence of mycelial growth in the medium and the lowest concentration of the test compound which prevented fungal growth was recorded as the Minimal Inhibitory Concentration. This test procedure was carried out on two separate days.

The test system of experiment [4] is P. aeruginosa. Description: Antibacterial activity: Minimum Inhibitory Concentration. The note with it: Pseudomonas aeruginosa, P. aeruginosa, 37° C., 24 hours, read-out: Minimum Inhibitory Concentration. Format: cell-based, Pseudomonas aeruginosa ATCC 9027. On the procedure:
as §1, §2, §3, §4, §5

Consider `CCCCCCCCCCCC[n+]1c(C)cc(C)n1Cc1ccc(Cl)cc1.[Br-]` [Example 6-E, 2-(p-chlorobenzyl)-3,5-dimethyl-1-dodecyl-pyrazolium bromide], for which the MIC in experiment [1] (Day 1, 37° C.) came to 0.5 µg/mL; in experiment [1] (Day 2, 37° C.) it was 0.5 µg/mL; in experiment [2] (Day 1) it was 0.5 µg/mL; in experiment [2] (Day 2) it was 0.5 µg/mL; in experiment [3] (Day 1), 5 µg/mL; in experiment [3] (Day 2), 5 µg/mL. Moreover, the MIC in experiment [4] (Day 1) and in experiment [4] (Day 2) was 5 µg/mL each time.

As for `C=CCn1c(C)cc(C)[n+]1CCCCCCCCCCCCCCCC.[Br-]` [Example 7, 2-allyl-3,5-dimethyl-1-hexadecyl-pyrazoliumbromide], the MIC in experiment [1] (Day 1, 37° C.) stood at 0.5 µg/mL; in experiment [1] (Day 2, 37° C.) it was 0.5 µg/mL; in experiment [2] (Day 1) it was 1 µg/mL; in experiment [2] (Day 2) it was 0.5 µg/mL; in experiment [3] (Day 1), 1 µg/mL; in experiment [3] (Day 2), 5 µg/mL. In addition, the results for the MIC in experiment [4] (Day 1) and in experiment [4] (Day 2) were 50 µg/mL and 10 µg/mL, respectively.
